Assay results taken from ChEMBL document CHEMBL6092220 (J Med Chem, 2024).
Values belong to the molecule of their own block, whether it stands above or below them.

Experiments:
[1] = biological target: T1, Signal transducer and activator of transcription 3 (Homo sapiens, UniProt P40763); assay: Binding affinity to STAT3 (unknown origin) assessed as inhibition constant
[2] = Chemical stability of the compound in PBS buffer at pH 4; assay type: physicochemical
[3] = Chemical stability of the compound in PBS buffer at pH 7.4; assay type: physicochemical
[4] = Chemical stability of the compound in PBS buffer at pH 8; assay type: physicochemical
[5] = biological target: T2, Protein cereblon/Signal transducer and activator of transcription 3 (Homo sapiens, UniProt P40763+Q96SW2); assay: PROTAC activity at his-SUMO-tagged STAT3 (127 to 688 residues)/CRBN in human HeLa cells assessed as induction of STAT3 degradation incubated for 24 hrs by TECAN SPARK microplate reader analysis; assay type: cell-based
[6] = biological target: T2, Protein cereblon/Signal transducer and activator of transcription 3; assay: PROTAC activity at his-SUMO-tagged STAT3 (127 to 688 residues)/CRBN in human HeLa cells assessed as induction of STAT3 degradation incubated for 24 hrs by TECAN SPARK microplate reader analysis relative to control; assay type: cell-based
[7] = Antiproliferative activity against human MOLM16 cells assessed as cell growth inhibition incubated for 4 days by celltiter-glo assay; assay type: functional, cell-based, MOLM-16; conditions: MOLM16, 96 h
SU-DHL-1 = assay: Antiproliferative activity against human SU-DHL-1 cells assessed as cell growth inhibition incubated for 4 days by celltiter-glo assay; assay type: functional, cell-based; conditions: SU-DHL-1, 96 h
[8] = Antiproliferative activity against human SUPM2 cells assessed as cell growth inhibition incubated for 4 days by celltiter-glo assay; assay type: functional, cell-based; conditions: SUP-M2, 96 h
[9] = biological target: Protein cereblon/Signal transducer and activator of transcription 4 (Homo sapiens, UniProt Q96SW2+Q14765); assay: PROTAC activity at STAT4/CRBN in human SU-DHL-1 cells assessed as reduction in STAT4 level incubated for 20 hrs by Western blot analysis; assay type: cell-based; conditions: dose <= 40.0 µM
[10] = biological target: Signal transducer and activator of transcription 1-alpha/beta (Homo sapiens, UniProt P42224); assay: Binding affinity to STAT1 (unknown origin) by FP assay
[11] = biological target: Signal transducer and activator of transcription 4 (Homo sapiens, UniProt Q14765); assay: Binding affinity to STAT4 (unknown origin) by FP assay
[12] = Binding affinity to STAT5 (unknown origin) by FP assay; set-up: species or system Homo sapiens
[13] = biological target: Signal transducer and activator of transcription 6 (Homo sapiens, UniProt P42226); assay: Binding affinity to STAT6 (unknown origin) by FP assay
[14] = biological target: T1, Signal transducer and activator of transcription 3; assay: Binding affinity to STAT3 (unknown origin) assessed as maximum inhibition by FP assay relative to control
[15] = biological target: Signal transducer and activator of transcription 1-alpha/beta (Homo sapiens) (UniProt P42224); assay: Binding affinity to STAT1 (unknown origin) assessed as maximum inhibition by FP assay relative to control
[16] = biological target: Signal transducer and activator of transcription 4 (Homo sapiens) (UniProt Q14765); assay: Binding affinity to STAT4 (unknown origin) assessed as maximum inhibition by FP assay relative to control
[17] = biological target: Signal transducer and activator of transcription 6 (Homo sapiens) (UniProt P42226); assay: Binding affinity to STAT6 (unknown origin) assessed as maximum inhibition by FP assay relative to control
[18] = Chemical stability of the compound in PBS buffer assessed as half life at pH 4; assay type: physicochemical
[19] = Chemical stability of the compound in PBS buffer assessed as half life at pH 7.4; assay type: physicochemical
[20] = Chemical stability of the compound in PBS buffer assessed as half life at pH 8; assay type: physicochemical
[21] = biological target: T3, Protein cereblon/Signal transducer and activator of transcription 3 (Mus musculus) (UniProt P42227+Q8C7D2); assay: In-vivo PROTAC activity at STAT3/CRBN in female CB17 SCID mouse assessed as reduction STAT3 level liver at 10 mg/kg, iv measured at 24 hrs by Western blot analysis; assay type: functional, organism-based; set-up: scale not given: the % may be the effect or the level left
[22] = biological target: T3, Protein cereblon/Signal transducer and activator of transcription 3 (Mus musculus); assay: In-vivo PROTAC activity at STAT3/CRBN in female CB17 SCID mouse assessed as reduction STAT3 level spleen at 10 mg/kg, iv measured at 24 hrs by Western blot analysis; assay type: functional, organism-based; set-up: scale not given: the % may be the effect or the level left
[23] = biological target: T3, Protein cereblon/Signal transducer and activator of transcription 3 (Mus musculus); assay: In-vivo PROTAC activity at STAT3/CRBN in female CB17 SCID mouse assessed as reduction STAT3 level liver at 10 mg/kg, iv measured at 48 hrs by Western blot analysis; assay type: functional, organism-based; set-up: scale not given: the % may be the effect or the level left
[24] = biological target: T3, Protein cereblon/Signal transducer and activator of transcription 3 (Mus musculus); assay: In-vivo PROTAC activity at STAT3/CRBN in female CB17 SCID mouse assessed as reduction STAT3 level spleen at 10 mg/kg, iv measured at 48 hrs by Western blot analysis; assay type: functional, organism-based; set-up: scale not given: the % may be the effect or the level left
[25] = biological target: T3, Protein cereblon/Signal transducer and activator of transcription 3 (Mus musculus); assay: In-vivo PROTAC activity at STAT3/CRBN in female CB17 SCID mouse assessed as reduction STAT3 level liver at 10 mg/kg, iv measured at 72 hrs by Western blot analysis; assay type: functional, organism-based; set-up: scale not given: the % may be the effect or the level left
[26] = biological target: T3, Protein cereblon/Signal transducer and activator of transcription 3 (Mus musculus); assay: In-vivo PROTAC activity at STAT3/CRBN in female CB17 SCID mouse assessed as reduction STAT3 level spleen at 10 mg/kg, iv measured at 72 hrs by Western blot analysis; assay type: functional, organism-based; set-up: scale not given: the % may be the effect or the level left
[27] = Half life in ICR mouse at 5 mg/kg, iv; assay type: ADME, organism-based; conditions: in vivo
[28] = Cmax in ICR mouse at 5 mg/kg, iv; assay type: ADME, organism-based; conditions: in vivo
[29] = AUC (0 to t) in ICR mouse at 5 mg/kg, iv; assay type: ADME, organism-based; conditions: in vivo
[30] = Apparent volume of distribution in ICR mouse at 5 mg/kg, iv; assay type: ADME, organism-based; conditions: in vivo, read-out: Vz
[31] = Clearance in ICR mouse at 5 mg/kg, iv; assay type: ADME, organism-based; conditions: in vivo
[32] = Clearance in ICR mouse assessed as hepatic blood flow at 5 mg/kg, iv; assay type: ADME, organism-based; conditions: in vivo
[33] = Half life in Sprague-Dawley rat at 5 mg/kg, iv; assay type: ADME, organism-based; conditions: in vivo
[34] = Cmax in Sprague-Dawley rat at 5 mg/kg, iv; assay type: ADME, organism-based; conditions: in vivo
[35] = AUC (0 to t) in Sprague-Dawley rat at 5 mg/kg, iv; assay type: ADME, organism-based; conditions: in vivo
[36] = Apparent volume of distribution in Sprague-Dawley rat at 5 mg/kg, iv; assay type: ADME, organism-based; conditions: in vivo, read-out: Vz
[37] = Clearance in Sprague-Dawley rat at 5 mg/kg, iv; assay type: ADME, organism-based; conditions: in vivo
[38] = Clearance in Sprague-Dawley rat assessed as hepatic blood flow at 5 mg/kg, iv; assay type: ADME, organism-based; conditions: in vivo
[39] = Half life in Beagle dog at 1 mg/kg, iv; assay type: ADME, organism-based, Canis lupus familiaris; conditions: in vivo
[40] = Cmax in Beagle dog at 1 mg/kg, iv; assay type: ADME, organism-based, Canis lupus familiaris; conditions: in vivo
[41] = AUC (0 to t) in Beagle dog at 1 mg/kg, iv; assay type: ADME, organism-based, Canis lupus familiaris; conditions: in vivo
[42] = Apparent volume of distribution in Beagle dog at 1 mg/kg, iv; assay type: ADME, organism-based, Canis lupus familiaris; conditions: in vivo, read-out: Vz
[43] = Clearance in Beagle dog at 1 mg/kg, iv; assay type: ADME, organism-based, Canis lupus familiaris; conditions: in vivo
[44] = Clearance in Beagle dog assessed as hepatic blood flow at 1 mg/kg, iv; assay type: ADME, organism-based, Canis lupus familiaris; conditions: in vivo
[45] = Plasma protein binding in rat assessed as unbound fraction at 10 uM; assay type: ADME, cell-free
[46] = Plasma protein binding in dog assessed as unbound fraction at 10 uM; assay type: ADME, cell-free, Canis lupus familiaris
[47] = Plasma protein binding in human assessed as unbound fraction at 10 uM; assay type: ADME, cell-free
[48] = Plasma protein binding in mouse at 10 uM; assay type: ADME, cell-free
[49] = Plasma protein binding in rat at 10 uM; assay type: ADME, cell-free
[50] = Plasma protein binding in dog at 10 uM; assay type: ADME, cell-free, Canis lupus familiaris
[51] = Plasma protein binding in human at 10 uM; assay type: ADME, cell-free

Ki [1]: 6 nM
Stability [2]: Stable
Stability [3]: Stable
Stability [4]: Stable
SMILES: CN1CC[C@H]2CC[C@@H](C(=O)N[C@@H](CCC(N)=O)C(=O)NC(c3ccccc3)c3ccccc3)N2C(=O)[C@@H](NC(=O)c2cc3cc(C(F)(F)P(=O)(O)O)ccc3s2)C1

SMILES: NC(=O)CC[C@H](NC(=O)[C@@H]1CC[C@@H]2CCN(C(=O)CCCCCC#Cc3cccc4c3CN(C3CCC(=O)NC3=O)C4=O)C[C@H](NC(=O)c3cc4cc(C(F)(F)P(=O)(O)O)ccc4[nH]3)C(=O)N21)C(=O)NC(c1ccccc1)c1ccccc1 (some centres not stated)
DC50 [5]: 400 nM
Emax [6]: 86%
IC50 [7]: 30 nM
IC50 (SU-DHL-1): 330 nM
IC50 [8]: 490 nM
Activity [9]: Dose-dependent-effect
IC50 [10]: 1300 nM
IC50 [11]: 1100 nM
IC50 [12]: > 10 nM
IC50 [13]: > 10000 nM
Imax [14]: 100%
Imax [15]: 92%
Imax [16]: 93%
Imax [17]: 0%

SMILES: CN1CC[C@H]2CC[C@@H](C(=O)N[C@@H](CCC(N)=O)C(=O)NC(c3ccccc3)c3ccccc3)N2C(=O)[C@@H](NC(=O)c2cc3cc(C(F)(F)P(=O)(O)O)ccc3[nH]2)C1
t1/2 [18]: 4 h
t1/2 [19]: 2 h
t1/2 [20]: 2 h

SMILES: CC(=O)N1CC[C@H]2CC[C@@H](C(=O)N[C@@H](CCC(N)=O)C(=O)N[C@@H](Cc3ccc(F)c(F)c3)C(=O)N3CCC(CCC#Cc4cccc5c4CN(C4CCC(=O)NC4=O)C5=O)CC3)N2C(=O)[C@@H](NC(=O)c2cc3cc(C(F)(F)P(=O)(O)O)ccc3s2)C1 (some centres not stated)
DC50 [5]: 1600 nM
Emax [6]: 68%
Activity [21]: > 90%
Activity [22]: > 90%
Activity [23]: > 90%
Activity [24]: > 90%
Activity [25]: > 90%
Activity [26]: > 90%
IC50 [7]: 75 nM
IC50 (SU-DHL-1): 3580 nM
IC50 [8]: 1460 nM
half-life [27]: 16.9 h
Cmax [28]: 121000 ng/mL
AUC(0-t) [29]: 739000 ng·h/mL
Vd [30]: 0.11 L/kg
clearance [31]: 0.073 mL/min/kg
QH [32]: 0.1%
half-life [33]: 1.3 h
Cmax [34]: 15900 ng/mL
AUC(0-t) [35]: 21100 ng·h/mL
Vd [36]: 0.44 L/kg
clearance [37]: 4 mL/min/kg
QH [38]: 7.3%
half-life [39]: 2.9 h
Cmax [40]: 8030 ng/mL
AUC(0-t) [41]: 15000 ng·h/mL
Vd [42]: 0.24 L/kg
clearance [43]: 1 mL/min/kg
QH [44]: 3.1%
Fu [45]: 3.8%
Fu [46]: 3.3%
Fu [47]: 0.6%
PPB [48]: 99.1%
PPB [49]: 96.2%
PPB [50]: 96.7%
PPB [51]: 99.4%
